ChEMBL document CHEMBL5230136, “A review: Biologically active 3,4-heterocycle-fused coumarins” (Eur J Med Chem, 2021)
In brackets after ≈: the same amount, converted by molar mass.

How the values were obtained:
Bacillus cereus [1] = assay: Antibacterial activity against Bacillus cereus assessed as zone of inhibition at 20 mg/ml; assay type: functional; details: read-out: IZ
Staphylococcus aureus = assay: Antibacterial activity against Staphylococcus aureus assessed as zone of inhibition; assay type: functional
Pseudomonas aeruginosa = assay: Antibacterial activity against Pseudomonas aeruginosa assessed as zone of inhibition; assay type: functional
Escherichia coli = assay: Antibacterial activity against Escherichia coli assessed as zone of inhibition; assay type: functional
Klebsiella aerogenes = assay: Antibacterial activity against Enterobacter aerogenes assessed as zone of inhibition; assay type: functional
Aspergillus niger = assay: Antifungal activity against Aspergillus niger assessed as zone of inhibition; assay type: functional
Penicillium italicum = assay: Antifungal activity against Penicillium italicum assessed as zone of inhibition; assay type: functional
Fusarium oxysporum = assay: Antifungal activity against Fusarium oxysporum assessed as zone of inhibition; assay type: functional
Rhizoctonia solani [2] = assay: Antifungal activity against Rhizoctonia solani at 150 uM; assay type: functional, organism-based
Botrytis cinerea [3] = assay: Antifungal activity against Botrytis cinerea; assay type: functional, organism-based
Colletotrichum camelliae = assay: Antifungal activity against Colletotrichum camelliae; assay type: functional, organism-based
[4] = Antioxidant activity assessed as DPPH radical scavenging activity; assay type: functional
[5] = molecular target: Dopamine receptors; D2 & D4 (Homo sapiens, UniProt P14416+P21917); assay: Binding affinity to human D2/D4 receptor assessed as inhibition constant; assay type: protein assay
Bacillus cereus [6] = assay: Antibacterial activity against Bacillus cereus assessed as zone of inhibition; assay type: functional
Serratia marcescens [7] = assay: Antibacterial activity against Serratia marcescens assessed as zone of inhibition; assay type: functional
Proteus mirabilis = assay: Antibacterial activity against Proteus mirabilis assessed as zone of inhibition; assay type: functional
Aspergillus ochraceus = assay: Antifungal activity against Aspergillus ochraceus assessed as zone of inhibition; assay type: functional
Penicillium chrysogenum = assay: Antifungal activity against Penicillium chrysogenum assessed as zone of inhibition; assay type: functional
[8] = Antiproliferative activity against human U87 cells assessed as reduction in cell viability by MTT assay; assay type: functional, cell-based, U-87MG ATCC; details: U-87 MG
Bacillus subtilis = assay: Antibacterial activity against Bacillus subtilis assessed as zone of inhibition; assay type: functional
[9] = tested on: Xanthomonas citri pv. malvacearum; assay: Antibacterial activity against Xanthomonas citri pv. malvacearum assessed as reduction in bacterial growth; assay type: functional; design: concentration or dose not given beside the values
Fusarium verticillioides = assay: Antifungal activity against Fusarium verticillioides assessed as reduction in fungal growth; assay type: functional; design: concentration or dose not given beside the values
Rhizoctonia solani [10] = assay: Antifungal activity against Rhizoctonia solani assessed as reduction in fungal growth; assay type: functional; design: concentration or dose not given beside the values
Erysiphe necator = assay: Antifungal activity against powdery mildew Erysiphe necator assessed as reduction in fungal growth; assay type: functional; design: concentration or dose not given beside the values
Phytophthora = assay: Antimicrobial activity against Phytophthora assessed as reduction in microbial growth; assay type: functional; design: concentration or dose not given beside the values
Botrytis cinerea [11] = assay: Antifungal activity against gray mold Botrytis cinerea assessed as reduction in fungal growth; assay type: functional; design: concentration or dose not given beside the values
[12] = molecular target: T1, D(4) dopamine receptor (Homo sapiens) (UniProt P21917); assay: Inhibition of human D4 receptor
T1 sequence (whole entry): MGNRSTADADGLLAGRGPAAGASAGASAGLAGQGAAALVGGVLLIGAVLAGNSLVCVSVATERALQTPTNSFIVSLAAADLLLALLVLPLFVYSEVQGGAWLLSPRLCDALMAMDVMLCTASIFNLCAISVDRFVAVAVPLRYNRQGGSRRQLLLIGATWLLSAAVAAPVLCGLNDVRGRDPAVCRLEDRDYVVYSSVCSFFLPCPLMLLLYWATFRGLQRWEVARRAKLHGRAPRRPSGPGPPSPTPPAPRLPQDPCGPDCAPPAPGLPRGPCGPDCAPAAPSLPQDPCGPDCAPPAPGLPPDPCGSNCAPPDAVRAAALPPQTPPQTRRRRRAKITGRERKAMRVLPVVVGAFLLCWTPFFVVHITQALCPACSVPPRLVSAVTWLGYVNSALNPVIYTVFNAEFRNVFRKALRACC

Serratia marcescens [13] = assay: Antibacterial activity against Serratia marcescens assessed as zone of inhibition at 20 mg/ml; assay type: functional; details: read-out: IZ
Ehrlich = assay: cells; details: Mus musculus
Description: Anticancer activity against mouse EAC cells assessed as reduction in cell viability

NC1NC=NC2=C1C(c1ccc(Br)cc1)c1c(c3ccccc3oc1=O)O2 (stereo unspecified)
zone of inhibition at 20000 µg/mL (Bacillus cereus [1]): 22 mm
inhibition zone (IZ) (Staphylococcus aureus): 29 mm
inhibition zone (IZ) (Pseudomonas aeruginosa): 18 mm
inhibition zone (IZ) (Escherichia coli): 21 mm
inhibition zone (IZ) (Klebsiella aerogenes): 20 mm
inhibition zone (IZ) (Aspergillus niger): 14 mm
inhibition zone (IZ) (Penicillium italicum): 16 mm
inhibition zone (IZ) (Fusarium oxysporum): 18 mm

CCOc1ccc2c(c1)oc(=O)c1c(C)coc12
EC50 (Rhizoctonia solani [2]): 8.87 µg/mL (≈ 36.3 µM)

COc1ccc2ccc(=O)oc2c1CC=C(C)C [OSTHOLE]
EC50 (Botrytis cinerea [3]): 6.45 µg/mL (≈ 26.4 µM)
EC50 (Colletotrichum camelliae): 16.8 µg/mL (≈ 68.9 µM)
EC50 (Rhizoctonia solani [2]): 6.88 µg/mL (≈ 28.2 µM)

CN1CCN(Cc2[se]c3c(=O)oc4ccccc4c3c2Br)CC1
IC50 [4]: 87000 nM

COc1ccc2c3c(c(=O)oc2c1)CN(Cc1ccc(Cl)cc1)CC3
Ki [5]: 667 nM

CC1C(C#N)=C(N)Oc2c1c(=O)oc1ccccc21 (stereo unspecified)
inhibition zone (IZ) (Staphylococcus aureus): 18 mm
inhibition zone (IZ) (Bacillus cereus [6]): 19 mm
inhibition zone (IZ) (Serratia marcescens [7]): 18 mm
inhibition zone (IZ) (Proteus mirabilis): 20 mm
inhibition zone (IZ) (Aspergillus ochraceus): 16 mm
inhibition zone (IZ) (Penicillium chrysogenum): 18 mm

Cc1ccc2c3c(c(=O)oc2c1)CN(Cc1ccc(F)cc1)CC3
Ki [5]: 773 nM

N#CC1=C(N)Oc2c(c(=O)oc3ccc(Br)cc23)C12C(=O)Nc1ccccc12 (stereo unspecified)
IC50 [8]: 78000 nM

CC1(C)S[C@@H]2[C@H](NC(=O)[C@H](N)c3ccc(O)cc3)C(=O)N2[C@H]1C(=O)O [AMOXICILLIN]
inhibition zone (IZ) (Staphylococcus aureus): 29 mm
inhibition zone (IZ) (Bacillus subtilis): 12 mm
inhibition zone (IZ) (Bacillus cereus [6]): 20 mm
inhibition zone (IZ) (Pseudomonas aeruginosa): 11 mm
inhibition zone (IZ) (Escherichia coli): 36 mm
inhibition zone (IZ) (Klebsiella aerogenes): 10 mm

Cc1ccc2c3c(c(=O)oc2c1)C(c1ccccc1)N(C)C(c1ccccc1)C3 (stereo unspecified)
Activity [9]: 0%
Activity (Fusarium verticillioides): 22%
Activity (Rhizoctonia solani [10]): 15%
Activity (Erysiphe necator): 0%
Activity (Phytophthora): 0%
Activity (Botrytis cinerea [11]): 0%

O=NN(CCCl)C(=O)NCCCl [CARMUSTINE]
IC50 [8]: 3.9 µg/mL

CC(=O)N1C(c2ccccc2)Cc2c(c(=O)oc3c2ccc2ccccc23)C1c1ccccc1 (stereo unspecified)
Activity [9]: 9%
Activity (Fusarium verticillioides): 6%
Activity (Rhizoctonia solani [10]): 2%
Activity (Erysiphe necator): 0%
Activity (Phytophthora): 0%
Activity (Botrytis cinerea [11]): 21%

COc1ccc2c3c(c(=O)oc2c1)CN(Cc1ccccc1Cl)CC3
Ki [5]: 171 nM

O=c1oc2c(ccc3ccccc32)c2c1C(c1ccccc1)NC(c1ccccc1)C2 (stereo unspecified)
Activity [9]: 9%
Activity (Fusarium verticillioides): 18%
Activity (Rhizoctonia solani [10]): 30%
Activity (Erysiphe necator): 68%
Activity (Phytophthora): 83%
Activity (Botrytis cinerea [11]): 32%

C=CCOc1ccc2c(c1)oc(=O)c1c(C)coc12
EC50 (Botrytis cinerea [3]): 1.72 µg/mL (≈ 6.71 µM)

COc1cc2c(cc1OC)C1CCN(CCN3CC4CCC(CC4)C3)CC1C(=O)O2 (stereo unspecified)
ID50 [12]: 0.113 mg/kg

COc1ccc(CN2CCc3c(c(=O)oc4cc(OC)ccc34)C2)cc1
Ki [5]: 69 nM

CCOC(=O)c1nc2c3c(ncn2n1)Oc1c(c(=O)oc2ccccc12)C3c1ccc(Cl)cc1 (stereo unspecified)
zone of inhibition at 20000 µg/mL (Serratia marcescens [13]): 25 mm
inhibition zone (IZ) (Staphylococcus aureus): 23 mm
inhibition zone (IZ) (Bacillus cereus [6]): 22 mm
inhibition zone (IZ) (Serratia marcescens [7]): 25 mm
inhibition zone (IZ) (Proteus mirabilis): 23 mm
inhibition zone (IZ) (Aspergillus niger): 14 mm
inhibition zone (IZ) (Aspergillus ochraceus): 19 mm
inhibition zone (IZ) (Penicillium chrysogenum): 20 mm

O=C1c2ccccc2-c2nc3c(c(-c4ccccc4)c21)c(=O)oc1ccccc13
IC50 (Ehrlich): 130 nM

O=c1oc2ccccc2c2nc3c(c(-c4ccccc4)c12)CCC/C3=C\c1ccccc1
IC50 (Ehrlich): 130 nM

COc1ccc2c(c1)OC(=O)C1CN(CCN3CC4CCC(CC4)C3)CCC21 (stereo unspecified)
ID50 [12]: 0.035 mg/kg

CC1c2c(c3ccccc3oc2=O)Oc2ncn3nc(CCl)nc3c21 (stereo unspecified)
inhibition zone (IZ) (Staphylococcus aureus): 20 mm
inhibition zone (IZ) (Bacillus cereus [6]): 22 mm
inhibition zone (IZ) (Serratia marcescens [7]): 21 mm
inhibition zone (IZ) (Proteus mirabilis): 20 mm
inhibition zone (IZ) (Aspergillus ochraceus): 18 mm
inhibition zone (IZ) (Penicillium chrysogenum): 19 mm

C=CCOc1ccc2c(c1)oc(=O)c1c(C)c(C)oc12
EC50 (Botrytis cinerea [3]): 1.72 µg/mL (≈ 6.36 µM)

O=c1oc2ccccc2c2c1C(c1ccc(Cl)cc1)c1c(ncn3nc(CCl)nc13)O2 (stereo unspecified)
inhibition zone (IZ) (Staphylococcus aureus): 23 mm
inhibition zone (IZ) (Bacillus cereus [6]): 22 mm
inhibition zone (IZ) (Serratia marcescens [7]): 23 mm
inhibition zone (IZ) (Proteus mirabilis): 22 mm
inhibition zone (IZ) (Aspergillus ochraceus): 19 mm
inhibition zone (IZ) (Penicillium chrysogenum): 19 mm

CCOc1ccc2c(c1)oc(=O)c1c(C)c(C)oc12
EC50 (Botrytis cinerea [3]): 1.72 µg/mL (≈ 6.66 µM)
